Here are results for five compounds from PubChem BioAssay (NCI).

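Briefly, cells in 96-well plates were exposed to five compound concentrations for 48 h, and endpoints were estimated by linear interpolation. TGI is the concentration that stops growth completely.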

Some test systems named below: A498 renal; SNB-78 CNS; SF-539 CNS; UACC-62 melanoma; UACC-257 melanoma; IGROV1 ovarian; EKVX NSCLC; SN12C renal; OVCAR-4 ovarian; SK-OV-3 ovarian; NCI-H460 lung; HCT-116 colon; RXF 393 renal; HOP-92 NSCLC; MOLT-4 leukemia; SF-295 CNS; KM12 colon; TK-10 renal; SK-MEL-2 melanoma; NCI-H226 lung.
Experiment in all cases: NCI anticancer screen, dose series, 48 h

With `Cc1ccccc1NC(=O)C(=O)C(C1OC(=O)c2ccccc21)[N+](=O)[O-]` (stereo unspecified), the TGI with A498 renal, in the experiment with SNB-78 CNS, in the experiment with SF-539 CNS, in the experiment on UACC-62 melanoma, with UACC-257 melanoma and in the experiment on IGROV1 ovarian was over 100 µM in each case. The TGI in the experiment with EKVX NSCLC, in the experiment on SN12C renal, in the experiment with OVCAR-4 ovarian, with SK-OV-3 ovarian, in the experiment on NCI-H460 lung and in the experiment on HCT-116 colon was over 100 µM each time. The TGI with RXF 393 renal, in the experiment with HOP-92 NSCLC, with MOLT-4 leukemia, in the experiment with SF-295 CNS, with KM12 colon and in the experiment on TK-10 renal was over 100 µM each time. The TGI in the experiment on SK-MEL-2 melanoma and in the experiment on NCI-H226 lung was over 100 µM throughout.

As for `NCC(=O)N[C@H]1c2ccsc2/C(=N/O)[C@H]1O`, the TGI in the experiment with A498 renal, in the experiment with SF-539 CNS, in the experiment with UACC-62 melanoma, in the experiment with UACC-257 melanoma, with IGROV1 ovarian and in the experiment on EKVX NSCLC was over 100 µM each time. In addition, the TGI in the experiment on SN12C renal, in the experiment with OVCAR-4 ovarian, in the experiment on SK-OV-3 ovarian, with NCI-H460 lung, in the experiment with HCT-116 colon and with RXF 393 renal was over 100 µM in each case. Further, the TGI in the experiment with HOP-92 NSCLC, with MOLT-4 leukemia, in the experiment on SF-295 CNS, with TK-10 renal, in the experiment on SK-MEL-2 melanoma and in the experiment on NCI-H226 lung was over 100 µM in each case.

As for `CC1OC1C(=O)P(=O)(O)O` (stereo unspecified), the TGI in the experiment on A498 renal, in the experiment on SF-539 CNS, with UACC-62 melanoma, with UACC-257 melanoma, in the experiment with IGROV1 ovarian and with EKVX NSCLC was over 100 µM each time. Further, the TGI in the experiment on SN12C renal, with OVCAR-4 ovarian, in the experiment with SK-OV-3 ovarian, in the experiment with NCI-H460 lung, with HCT-116 colon and in the experiment on HOP-92 NSCLC was over 100 µM each time. In addition, the TGI in the experiment on MOLT-4 leukemia, in the experiment with SF-295 CNS, in the experiment on KM12 colon, in the experiment on TK-10 renal, in the experiment with SK-MEL-2 melanoma and in the experiment with NCI-H226 lung was over 100 µM throughout.

Turning to `CCOC(=O)c1ccc(N2C(=O)/C(=C/c3ccc(N(CCC#N)CCC#N)cc3)N=C2c2cc([N+](=O)[O-])ccc2Cl)cc1`, the TGI in the experiment with SNB-78 CNS, in the experiment on SF-539 CNS, in the experiment on UACC-62 melanoma, in the experiment on IGROV1 ovarian, in the experiment on EKVX NSCLC and in the experiment on SN12C renal was over 100 µM each time. The TGI in the experiment with OVCAR-4 ovarian, in the experiment with SK-OV-3 ovarian, with HCT-116 colon, with RXF 393 renal, in the experiment with HOP-92 NSCLC and in the experiment on MOLT-4 leukemia was over 100 µM in each case. The TGI in the experiment with SF-295 CNS, with KM12 colon, with TK-10 renal, with SK-MEL-2 melanoma and in the experiment with NCI-H226 lung was over 100 µM in each case.

Take `COC1CCC(O)C(CO)O1` (stereo unspecified): the TGI in the experiment on SNB-78 CNS is over 100 µM; with SF-539 CNS, over 100 µM; in the experiment with UACC-62 melanoma it was over 100 µM; in the experiment with UACC-257 melanoma, over 100 µM; in the experiment with IGROV1 ovarian, 61.2 µM; in the experiment with EKVX NSCLC, over 100 µM. Besides, the TGI in the experiment on SN12C renal, in the experiment on OVCAR-4 ovarian, in the experiment on SK-OV-3 ovarian, with NCI-H460 lung, in the experiment on HCT-116 colon and with RXF 393 renal was over 100 µM each time. For the same compound, the TGI with HOP-92 NSCLC, in the experiment with MOLT-4 leukemia, with SF-295 CNS, in the experiment on KM12 colon, in the experiment with TK-10 renal and with SK-MEL-2 melanoma was over 100 µM in each case.
